Like-named read-outs stand apart in the source and are kept apart here.
Legend:
[1] = biological target: T1, µOR (Homo sapiens, UniProt P35372); experiment: competitive radioligand binding with [3H]diprenorphine, membranes of transfected HEK 293T cells; set-up: expressed in transfected cells; host or cells: HEK 293T cells, transient transfection, membrane preparation
Procedure: (§1) To verify the subtype selectivity of the described compounds for µOR over δOP and κOR, respectively, the binding affinities of the described examples to the different human opioid receptors in an in-vitro test system were measured.
(§2) For the determination of receptor binding affinity competitive radioligand binding experiments were performed as described in literature (H. Huebner, C. Haubmann, W. Utz, P. Gmeiner, J. Med. Chem., 2000, 43, 756-762). In brief, HEK 293T cells were transiently transfected with the cDNAs coding for the human opioid receptor subtypes µOR, δOR, and kOR, respectively, using a solution of polyethylenimine in PBS (PEI, linear, 25 kDa, Polysciences) as transfection reagent at a 3:1 PEI to cDNA ratio (I. Fish, A. Stoessel, K. Eitel, C. Valant, S. Albold, H. Huebner, D. Moeller, M.J. Clark, R.K. Sunahara, A. Christopoulos, B.K. Shoichet, P. Gmeiner, J. Med. Chem., 2017, 60, 9239-9250). After preparation of membranes, radioligand displacement assays were run in 96-well format at a final volume of 200 µL in binding buffer (50 mM Tris-HCI, 1 mM EDTA, 5 mM MgCl2, 100 µg/mL bacitracin, 5 µg/mL soybean trypsin inhibitor, pH 7.4) with the radioligand [^3H]diprenorphine (specific activity = 31 Ci/mmol) at a final concentration of 0.20-0.30 nM. […] Unspecific binding was determined in the presence of 10 µM of the naloxone. Protein concentrations were determined employing the method of Lowry with bovine serum albumin as standard (O.H. Lowry, N.J. Rosebrough, A.L. Farr, R.J. Randall, J. Biol. Chem., 1951, 193, 265-275). The resulting competition curves of the receptor binding experiments were analyzed by nonlinear regression. The data were initially fit using a sigmoid model to provide IC50 values, which were subsequently transformed to Ki values according to the equation of Cheng and Prusoff (Y.-C. Cheng, W. H. Prusoff, Biochem. Pharmacol., 1973, 22, 3099-3108). Three to seven experiments per compound were performed, with each concentration in triplicate.

[2] = biological target: T2, δOR (Homo sapiens, UniProt P41143); experiment: as above
T2 construct: expressed in transfected cells; host or cells: HEK 293T cells, transient transfection, membrane preparation
Procedure: as §1, §2

[3] = biological target: T3, κOR (Homo sapiens, UniProt P41145); experiment: as above
T3 construct: expressed in transfected cells; host or cells: HEK 293T cells, transient transfection, membrane preparation
Procedure: as §1
After preparation of membranes, radioligand displacement assays were run in 96-well format at a final volume of 200 µL in binding buffer (50 mM Tris-HCI, 1 mM EDTA, 5 mM MgCl2, 100 µg/mL bacitracin, 5 µg/mL soybean trypsin inhibitor, pH 7.4) with the radioligand [^3H]diprenorphine (specific activity = 31 Ci/mmol) at a final concentration of 0.20-0.30 nM. […] Unspecific binding was determined in the presence of 10 µM of the naloxone. […] The resulting competition curves of the receptor binding experiments were analyzed by nonlinear regression. […] Three to seven experiments per compound were performed, with each concentration in triplicate.

[4] = biological target: T1, µOR; experiment: G-protein mediated signaling, IP1 accumulation assay (HTRF) in HEK-293T cells with hybrid G-protein Gαqi; assay type: cell-based; set-up: expressed in transfected cells; host or cells: HEK-293T cells, transient transfection; conditions: for Emax: HEK-293T, read-out: G-protein signaling Emax; for G-protein signaling EC50: mean of 3-9 experiments, 180 min at 37 °C, CBA = could not be analyzed (no dose-response curve)
Procedure: (§3) Functionally selective drugs, which are biased towards Gi protein activation over β-arrestin signaling at the µOR are indicated to show an improved side effect profile. Thus, the characterization of the functional properties of the described examples at the µOR were performed by determination of the ligand stimulated G-protein related signaling and β-arrestin recruitment applying cell based in-vitro test systems. Full and partial agonists as well as antagonists for G protein related signaling were identified.
The determination of G-protein stimulated µOR activation was measured applying an IP1 accumulation assay as described previously (J. Kruell, S.K. Fehler, L. Hofmann, N. Nebel, S. Maschauer, O. Prante, P. Gmeiner, H. Lanig, H. Huebner, M.R. Heinrich. ChemMedChem 2020, 15, 1175-1186. C. Gentzsch, K. Seier, A. Drakopoulos, M.-L. Jobin, Y. Lanoiselee, Z. Koszegi, D. Maurel, R. Sounier, H. Huebner, P. Gmeiner, S. Granier, D. Calebiro, M. Decker. Ang. Chem. Int. Ed. 2020, 59, 2-9). In brief, HEK-293T cells were grown to confluence of approximately 70% and transiently transfected with the cDNA of the human µOR receptor and the hybrid G-protein Gαqi. After one day cells were seeded into 384-well microplates. For testing cells were incubated with test compounds (final range of concentration from 1 pM up to 10 µM) for 180 min at 37 °C followed by addition of detection reagents. Time resolved fluorescence resonance energy transfer (HTRF) was determined using a microplate reader. Each compound was tested in duplicates in 3-9 individual experiments in comparison to the reference compound DAMGO. The resulting dose response curves were analyzed by nonlinear regression using the algorithms in PRISM 6.0 (GraphPad software, San Diego, CA), fitted with a sigmoid model and normalized to basal activity (0 %) and the maximal effect caused by the reference full agonist DAMGO (100 %).
(§4) In the above table, the numbers indicate mean EC50 values in nM and Emax values relative to the full effect of reference agonist DAMGO [=100%], respectively and are derived from 3-9 individual experiments for G-protein signaling and 3-8 tests for arrestin recruitment. ND = not determined.

[5] = biological target: T1, µOR; experiment: β-arrestin-2 recruitment, enzyme-fragment complementation assay in HEK-293 cells; assay type: cell-based; set-up: expressed in transfected cells; host or cells: HEK-293 cells stably expressing EA-tagged β-arrestin-2, transiently transfected with µOR-PK1; conditions: for Emax: HEK293, relative to the full effect of reference agonist DAMGO [=100%]; for β-arrestin recruitment EC50: mean of 3-8 tests, 90 min incubation, CBA = could not be analyzed (no dose-response curve)
Procedure: as §3
Measurement of β-arrestin-2 recruitment was done applying an enzyme-fragment complementation assay as described previously (C. Gentzsch, K. Seier, A. Drakopoulos, M.-L. Jobin, Y. Lanoiselee, Z. Koszegi, D. Maurel, R. Sounier, H. Huebner, P. Gmeiner, S. Granier, D. Calebiro, M. Decker. Ang. Chem. Int. Ed. 2020, 59, 2-9. J. Hellmann, M. Drabek, J. Yin, J. Gunera, T. Proell, F. Kraus, C.J. Langmead, H. Huebner, D. Weikert, P. Kolb, D.M. Rosenbaum, P. Gmeiner. PNAS 2020, 117, 18059-18067). In brief, HEK-293 cells stably expressing the enzyme acceptor (EA) tagged β-arrestin-2 fusion protein were transiently co-transfected with the ProLink tagged µOR-PK1 After 24 h cells were transferred into 384-well microplates and cultured for further 24 h. To start arrestin recruitment compounds were added to the cells to get a final concentration in a range of 10 pM to 100 µM. After incubation for 90 min reaction was stopped by addition of detection mix. Chemiluminescence was determined in duplicates (3-8 individual experiments for each compound in comparison to the reference agonist DAMGO). Data analysis was done as described above.
as §4

[6] = radioligand [3H]diprenorphine, number in brackets = number of experiments, read-out: mean Ki value κOR
[7] = radioligand [3H]diprenorphine, number in brackets = number of experiments, read-out: mean Ki value δOR

SMILES | Ki [1] | Ki [2] | Ki [3] | EC50 [4] | Emax [4] | Emax [5] | β-arrestin recruitment EC50 [5] | binding to δOR (in words) ([2]; statement in text referring to the radioligand binding table) | Ki [3, 6] | Ki [2, 7] | G-protein signaling EC50 [4]
CN(C)[C@H](COC(=O)C=Cc1ccccc1)Cc1ccc(O)cc1 (stereo in doubt) [Comparative Example 2, (S)-2-(Dimethylamino)-3-(4-hydroxyphenyl)propyl cinnamate, reference compound] | 0.23 µM | 0.86 µM | 0.32 µM | – | – | – | – | – | – | – | –
CN(C)[C@H](CNC(=O)C=Cc1ccccc1)Cc1ccc(O)cc1 (stereo in doubt) [Example 1, (S)-N-(2-(Dimethylamino)-3-(4-hydroxyphenyl)propyl)cinnamamide] | 0.013 µM | 0.025 µM | – | 0.007 µM | 63% | < 5% | CBA | high affinity | 0.12 µM | – | –
CN(C)[C@](C)(CNC(=O)C=Cc1ccccc1)Cc1ccc(O)cc1 (stereo in doubt) [Example 5, (S)-N-(2-(Dimethylamino)-3-(4-hydroxyphenyl)-2-methylpropyl)cinnamamide] | 0.31 µM | 1.3 µM | 0.97 µM | – | – | – | – | – | – | – | –
CN(C)[C@H](COC(=O)NCCc1ccsc1)Cc1ccc(O)cc1 [Comparative Example 1, (S)-2-(Dimethylamino)-3-(4-hydroxyphenyl)propyl (2-(thiophen-3-yl)ethyl)carbamate formiate, reference compound] | 2.4 µM | 3 µM | 3.3 µM | – | – | – | – | – | – | – | –
CN(C)[C@H](CNC(=O)/N=N/c1ccccc1)Cc1ccc(O)cc1 [Comparative Example 3, (S,E)-N-(2-(Dimethylamino)-3-(4-hydroxyphenyl)propyl)-2-phenyldiazene-1-carboxamide formiate, reference compound] | 0.066 µM | 0.63 µM | 0.54 µM | – | – | – | – | – | – | – | –
CN(C)[C@H](CNC(=O)C#Cc1ccccc1)Cc1ccc(O)cc1 [Example 2, (S)-N-(2-(Dimethylamino)-3-(4-hydroxyphenyl)propyl)-3-phenylpropiolamide] | 0.018 µM | – | – | 0.022 µM | 42% | < 5% | CBA | – | 0.23 µM | 0.14 µM | –
C/C(=C\C(=O)NC[C@H](Cc1ccc(O)cc1)N(C)C)c1ccccc1 [Example 3, (S,E)-N-(2-(Dimethylamino)-3-(4-hydroxyphenyl)propyl)-3-phenylbut-2-enamide] | 0.028 µM | – | – | 0.011 µM | 76% | < 5% | CBA | – | 0.12 µM | 0.12 µM | –
C/C(=C\c1ccccc1)C(=O)NC[C@H](Cc1ccc(O)cc1)N(C)C [Example 4, (S,E)-N-(2-(Dimethylamino)-3-(4-hydroxyphenyl)propyl)-2-methyl-3-phenylacrylamide] | 0.046 µM | 0.049 µM | – | 0.017 µM | 62% | < 5% | CBA | – | 0.11 µM | – | –
CN(C)[C@H](CNC(=O)/C=C/c1cccc2ccccc12)Cc1ccc(O)cc1 [Example 6, (S,E)-N-(2-(Dimethylamino)-3-(4-hydroxyphenyl)propyl)-3-(naphthalen-1-yl)acrylamide] | – | – | 0.18 µM | 0.02 µM | – | < 5% | CBA | – | – | – | –
Cc1cc(O)cc(C)c1C[C@H](N)CNC(=O)/C=C/c1cccc(C(F)(F)F)c1 [Example 11, (S,E)-N-(2-Amino-3-(4-hydroxy-2,6-dimethylphenyl)propyl)-3-(3-(trifluoromethyl)phenyl)acrylamide formiate] | 0.019 µM | 0.36 µM | 0.22 µM | – | < 5% | – | – | – | – | – | CBA
CN[C@H](CNC(=O)/C=C/c1cccc(C(F)(F)F)c1)Cc1c(C)cc(O)cc1C [Example 12, (S,E)-N-(3-(4-Hydroxy-2,6-dimethylphenyl)-2-(methylamino)propyl)-3-(3-(trifluoromethyl)phenyl)acrylamide formiate] | 0.012 µM | 0.31 µM | 0.31 µM | – | < 5% | – | – | – | – | – | CBA
Cc1cccc(/C=C/C(=O)NC[C@H](Cc2ccc(O)cc2)N(C)C)c1 [Example 13, (S,E)-N-(2-(Dimethylamino)-3-(4-hydroxyphenyl)propyl)-3-(m-tolyl)acrylamide] | 0.026 µM | – | – | 0.041 µM | 78% | – | – | – | 0.5 µM | 0.3 µM | –
CN(C)[C@H](CNC(=O)/C=C/c1ccc(F)c(C(F)(F)F)c1)Cc1ccc(O)cc1 [Example 16, (S,E)-N-(2-(Dimethylamino)-3-(4-hydroxyphenyl)propyl)-3-(4-fluoro-3-(trifluoromethyl)phenyl)acrylamide formiate] | 0.023 µM | 0.25 µM | 0.6 µM | 0.04 µM | 102% | – | – | – | – | – | –
